# In patent publication US12637461B2, “Compounds for the activation of AMPK” (PFIZER INC., priority 2022, dated 2026):
# Target: T1, human AMPK α2β2γ3 (Homo sapiens, UniProt O43741+P54646+Q9UGI9)
# T1 construct: expressed in transfected cells; host or cells: HEK293AD cells, MaxCyte bulk electroporation
# Test: Primary cellular assay: γ3 associated phospho-Thr172 AMPK detection (custom pAMPK Surefire AlphaLISA) in α2β2γ3 bulk transiently transfected HEK293 cells
# Format: cell-based
# Conditions: activation of human AMPK α2β2γ3 (γ3 pThr172 AMPK signal) in transiently transfected HEK293 cells, 20 minutes compound incubation; for Emax: 20 min, read-out: Assay GMean Asy. Max (%); for EC50: geometric mean EC50, read-out: Assay GMean EC50
# In short: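 Transiently co-transfected (α2/β2/γ3 plasmids, electroporation) HEK293AD cells, plated 2 days in low-glucose DMEM+10% FBS, treated 20 min with compounds (11-point half-log dilutions). Lysates read by modified AlphaLISA capturing γ3 with pThr172 antibody detection. % effect relative to 30 μM HPE and DMSO; EC50 and Emax from curve fit.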
# [1] = geometric mean of the asymptotic max
# T1 sequence (P54646 whole entry): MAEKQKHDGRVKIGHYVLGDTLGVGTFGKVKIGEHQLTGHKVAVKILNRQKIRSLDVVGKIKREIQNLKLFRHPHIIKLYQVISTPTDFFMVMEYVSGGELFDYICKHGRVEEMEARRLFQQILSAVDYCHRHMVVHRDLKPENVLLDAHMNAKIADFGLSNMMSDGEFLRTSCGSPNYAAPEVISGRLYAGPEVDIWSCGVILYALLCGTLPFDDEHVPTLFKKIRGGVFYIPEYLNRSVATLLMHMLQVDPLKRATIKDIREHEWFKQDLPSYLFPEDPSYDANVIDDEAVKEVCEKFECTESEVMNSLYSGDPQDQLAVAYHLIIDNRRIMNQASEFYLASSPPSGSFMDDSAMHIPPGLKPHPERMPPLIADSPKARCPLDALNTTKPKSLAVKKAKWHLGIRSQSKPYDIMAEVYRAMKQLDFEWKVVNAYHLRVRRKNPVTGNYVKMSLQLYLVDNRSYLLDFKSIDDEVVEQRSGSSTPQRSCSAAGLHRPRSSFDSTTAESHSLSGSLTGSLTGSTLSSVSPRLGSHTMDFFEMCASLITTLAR
# T1 sequence (O43741 whole entry): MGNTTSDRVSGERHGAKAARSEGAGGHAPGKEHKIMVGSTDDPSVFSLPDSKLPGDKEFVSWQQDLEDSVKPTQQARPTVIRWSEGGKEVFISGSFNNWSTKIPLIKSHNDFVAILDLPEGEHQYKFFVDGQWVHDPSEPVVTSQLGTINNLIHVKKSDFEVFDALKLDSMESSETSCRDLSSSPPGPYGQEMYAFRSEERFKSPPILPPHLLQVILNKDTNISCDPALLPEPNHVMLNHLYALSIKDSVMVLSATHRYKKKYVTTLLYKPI
# T1 sequence (Q9UGI9 whole entry): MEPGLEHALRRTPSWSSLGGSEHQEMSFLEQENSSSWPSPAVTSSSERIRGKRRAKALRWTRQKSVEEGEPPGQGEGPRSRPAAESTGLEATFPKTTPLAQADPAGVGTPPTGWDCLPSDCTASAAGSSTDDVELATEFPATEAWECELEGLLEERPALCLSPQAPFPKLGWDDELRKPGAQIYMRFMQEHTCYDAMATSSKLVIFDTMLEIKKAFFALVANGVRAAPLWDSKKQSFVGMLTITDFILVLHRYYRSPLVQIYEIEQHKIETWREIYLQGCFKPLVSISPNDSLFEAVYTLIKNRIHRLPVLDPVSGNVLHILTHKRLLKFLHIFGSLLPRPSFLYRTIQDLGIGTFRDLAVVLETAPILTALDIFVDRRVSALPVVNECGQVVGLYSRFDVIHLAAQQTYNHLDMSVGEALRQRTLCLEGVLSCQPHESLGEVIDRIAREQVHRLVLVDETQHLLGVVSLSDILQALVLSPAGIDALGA
Emax [1],EC50,Assay GMean Asy. Max (%) [1],SMILES
175%,152 nM,–,"CC(C)(CO)NC(=O)N1CC(Nc2ncc3c(n2)C(C)(c2cccc(Cl)c2F)CN(c2ncccc2F)C3=O)C1 (centres unmarked) [compound 87, 3-{[8-(3-chloro-2-fluorophenyl)-6-(3-fluoropyridin-2-yl)-8-methyl-5-oxo-5,6,7,8-tetrahydropyrido[4,3-d]pyrimidin-2-yl]amino}-N-(1-hydroxy-2-methylpropan-2-yl)azetidine-1-carboxamide, from P13 (ENANT-2)]"
148%,152 nM,–,"CC1(c2cccc(Cl)c2F)CN(c2ncccc2F)C(=O)c2cnc(NC3CN(C(=O)N4CC5CC4C5)C3)nc21 (centres unmarked) [compound 89, 2-{[1-(2-azabicyclo[2.1.1]hexane-2-carbonyl)azetidin-3-yl]amino}-8-(3-chloro-2-fluorophenyl)-6-(3-fluoropyridin-2-yl)-8-methyl-7,8-dihydropyrido[4,3-d]pyrimidin-5(6H)-one,from P13 (ENANT-2)]"
120%,147 nM,–,"CN(C)C(=O)CN1CC(Nc2ccc3c(c2F)C(C)(c2cccc(Cl)c2F)CN(c2nn(C)cc2F)C3=O)C1 (centres unmarked) [compound 90, 2-(3-{[4-(3-chloro-2-fluorophenyl)-5-fluoro-2-(4-fluoro-1-methyl-1H-pyrazol-3-yl)-4-methyl-1-oxo-1,2,3,4-tetrahydroisoquinolin-6-yl]amino}azetidin-1-yl)-N,N-dimethylacetamide, from P18 (ENANT-2)]"
99.7%,168 nM,–,"Cn1cc(F)c(N2CC(C)(c3cccc(Cl)c3F)c3c(ccc(NC4CN(CC(=O)N5CCOCC5)C4)c3F)C2=O)n1 (centres unmarked) [compound 91, 4-(3-chloro-2-fluorophenyl)-5-fluoro-2-(4-fluoro-1-methyl-1H-pyrazol-3-yl)-4-methyl-6-({1-[2-(morpholin-4-yl)-2-oxoethyl]azetidin-3-yl}amino)-3,4-dihydroisoquinolin-1(2H)-one,from P18 (ENANT-2)]"
–,58.9 nM,109%,"Cn1cc(F)c(N2CC(C)(c3cccc(Cl)c3F)c3c(ccc(NC4CN(CC(=O)N5CCC5)C4)c3F)C2=O)n1 (centres unmarked) [compound 92, 6-({1-[2-(azetidin-1-yl)-2-oxoethyl]azetidin-3-yl}amino)-4-(3-chloro-2-fluorophenyl)-5-fluoro-2-(4-fluoro-1-methyl-1H-pyrazol-3-yl)-4-methyl-3,4-dihydroisoquinolin-1(2H)-one, from P18 (ENANT-2)]"
57.5%,65.3 nM,–,"C[C@]1(c2cccc(Cl)c2F)CN(c2cc(N)ccn2)C(=O)c2cnc(NC3CN(C(=O)[C@@H]4C[C@@H]4F)C3)c(F)c21 [compound 93, (4R)-2-(4-aminopyridin-2-yl)-4-(3-chloro-2-fluorophenyl)-5-fluoro-6-({1-[(1S,2S)-2-fluorocyclopropane-1-carbonyl]azetidin-3-yl}amino)-4-methyl-3,4-dihydro-2,7-naphthyridin-1(2H)-one]"
50.3%,212 nM,–,"Cn1cnc(N2C[C@](C)(c3cccc(Cl)c3F)c3c(cnc(NC4CN(C(=O)[C@@H]5C[C@@H]5F)C4)c3F)C2=O)c1 [compound 94, (4R)-4-(3-chloro-2-fluorophenyl)-5-fluoro-6-({1-[(1S,2S)-2-fluorocyclopropane-1-carbonyl]azetidin-3-yl}amino)-4-methyl-2-(1-methyl-1H-imidazol-4-yl)-3,4-dihydro-2,7-naphthyridin-1(2H)-one]"
49.7%,70.2 nM,–,"Cn1cc(F)c(N2C[C@](C)(c3cccc(Cl)c3F)c3c(cnc(NC4CN(C(=O)[C@H]5C[C@H]5F)C4)c3F)C2=O)n1 [compound 99, (4R)-4-(3-chloro-2-fluorophenyl)-5-fluoro-6-({1-[(1R,2R)-2-fluorocyclopropane-1-carbonyl]azetidin-3-yl}amino)-2-(4-fluoro-1-methyl-1H-pyrazol-3-yl)-4-methyl-3,4-dihydro-2,7-naphthyridin-1(2H)-one]"
22.8%,11.6 nM,–,"C[C@]1(c2cccc(Cl)c2F)CN(c2ncccc2F)C(=O)c2cnc(NC3CN(C(=O)N4CCN5CC(F)(F)C[C@@H]5C4)C3)c(F)c21 [compound 100, (4R)-4-(3-chloro-2-fluorophenyl)-6-({1-[(8aR)-7,7-difluorohexahydropyrrolo[1,2-a]pyrazine-2(1H)-carbonyl]azetidin-3-yl}amino)-5-fluoro-2-(3-fluoropyridin-2-yl)-4-methyl-3,4-dihydro-2,7-naphthyridin-1(2H)-one]"
108%,135 nM,–,"Cn1cc(F)c(N2CC(C)(c3ccc(F)c(Cl)c3F)c3c(cnc(NC4CN(C(=O)C(C)(C)O)C4)c3F)C2=O)n1 (centres unmarked) [compound 101, 4-(3-chloro-2,4-difluorophenyl)-5-fluoro-2-(4-fluoro-1-methyl-1H-pyrazol-3-yl)-6-{[1-(2-hydroxy-2-methylpropanoyl)azetidin-3-yl]amino}-4-methyl-3,4-dihydro-2,7-naphthyridin-1(2H)-one, from P3 (ENANT-2)]"
70.5%,33.9 nM,–,"Cc1c(F)ccc(C2(C)CN(c3ncccc3F)C(=O)c3cnc(NC4CN(C(=O)C5(O)CC5)C4)c(F)c32)c1F (centres unmarked) [compound 106, 4-(2,4-difluoro-3-methylphenyl)-5-fluoro-2-(3-fluoropyridin-2-yl)-6-{[1-(1-hydroxycyclopropane-1-carbonyl)azetidin-3-yl]amino}-4-methyl-3,4-dihydro-2,7-naphthyridin-1(2H)-one, from P5 (ENANT-2)]"
76.8%,123 nM,–,"CC1(c2cccc(F)c2F)CN(c2ncccc2F)C(=O)c2cnc(NC3CN(C(=O)C4(O)CC4)C3)c(F)c21 (centres unmarked) [compound 108, 4-(2,3-difluorophenyl)-5-fluoro-2-(3-fluoropyridin-2-yl)-6-{[1-(1-hydroxycyclopropane-1-carbonyl)azetidin-3-yl]amino}-4-methyl-3,4-dihydro-2,7-naphthyridin-1(2H)-one, from P7 (ENANT-2)]"
63.2%,266 nM,–,"CN(C)C(=O)CN1CCC(Nc2ncc3c(c2F)C(C)(c2cccc(Cl)c2F)CN(c2nn(C)cc2F)C3=O)C1 [compound 110, 2-[(3R)-3-{[5-(3-chloro-2-fluorophenyl)-4-fluoro-7-(4-fluoro-1-methyl-1H-pyrazol-3-yl)-5-methyl-8-oxo-5,6,7,8-tetrahydro-2,7-naphthyridin-3-yl]amino}pyrrolidin-1-yl]-N,N-dimethylacetamide, from P9 (DIAST-2)]"
